Experimental data as given in patent US20230125482A1, “PROTEIN KINASE C MODULATORS” (Young Therapeutics, LLC, priority 2020, published 2023).
Where a SMILES comes first, the peptide text is derived from it. The star is where a group is joined. Myristoyl = CCCCCCCCCCCCCC(=O)*

What was measured:
[1] = test system: isolated rat hearts; test: Myocardial ischemia/reperfusion (I/R) injury in isolated rat hearts (Langendorff, ex vivo); conditions: for Final Coronary Flow / Final Heart Rate / Final LVDP / Final LVEDP / Final LVESP / Final dP/dtmax / Final dP/dtmin: 50 min post-reperfusion; for Infarct Size: I(30 min)/R(50 min), infarct tissue weight/total tissue weight; for Initial Coronary Flow / Initial Heart Rate / Initial LVDP / Initial LVEDP / Initial LVESP / Initial dP/dtmax / Initial dP/dtmin: baseline before ischemia
Experimental: Rat hearts were isolated from anesthetized male Sprague Dawley rats (275-325 g), placed in ice-cold Krebs' buffer, and placed onto a Langendorff heart apparatus and retro perfused with Krebs' buffer at a constant pressure of 80 mmHg (FIG. 1). A pressure transducer measures heart rate, left ventricular end-systolic pressure, end-diastolic pressure, dP/dt max, and dP/dt min. Coronary flow is measured via a flow probe connected to the perfusion tubing. Cardiac function was recorded throughout the experimental protocol using a pressure transducer inserted into the left ventricle (15 min baseline; global I(30 min)/R(50 min)). Selected peptides of TABLE 1 or vehicle (control [0.05 to 0.2% Dimethylsulfoxide) were given during the first 5 min of reperfusion. All peptide inhibitors or activators were dissolved in 28% DMSO and the final concentration of DMSO with peptides or without peptides (control I/R hearts) delivered to all hearts was 0.06%. Statistical analysis was performed using ANOVA and Bonferroni-Dunn post-hoc test.
At the end of the experimental protocol, hearts were removed from the Langendorff apparatus, and frozen for 30 min at −20° C. Hearts were sectioned (2 mm) from base to apex and placed in 1% TTC for ˜10 min at 37° C. Viable tissue stained red and infarcted tissue was unstained (pale). Total tissue sections were weighed and infarcted tissue was separated from viable tissue and weighed to determine infarct size (i.e. infarct tissue weight/total tissue weight).

[2] = Solubility of peptide; assay type: physicochemical

Structure (SMILES): CCCCCCCCCCCCCC(=O)N[C@@H](Cc1ccc(O)cc1)C(=O)NCC(=O)N[C@@H](CCCNC(=N)N)C(=O)N[C@@H](CCCCN)C(=O)N[C@@H](CCCCN)C(=O)N[C@@H](CCCNC(=N)N)C(=O)N[C@@H](CCCNC(=N)N)C(=O)N[C@@H](CCC(N)=O)C(=O)N[C@@H](CCCNC(=N)N)C(=O)N[C@@H](CCCNC(=N)N)C(=O)N[C@@H](CCCNC(=N)N)C(=O)N[C@@H](CS)C(=O)N[C@@H](CS)C(=O)N[C@@H](CCC(=O)O)C(=O)N[C@@H](C)C(=O)N[C@H](C(=O)N[C@@H](CO)C(=O)N[C@@H](CC(C)C)C(=O)N[C@@H](CCCCN)C(=O)N1CCC[C@H]1C(=O)N[C@H](C(=O)O)[C@@H](C)O)C(C)C [Myr + TAT + PKCε-] (Myristoyl-YGRKKRRQRRRCCEAVSLKPT-OH; C-terminus assumed)
- Final Coronary Flow ([1]; 100 pM): 10 ± 1 mL/min
- Final Heart Rate ([1]; 100 pM): 252 ± 8 BPM
- Final LVDP ([1]; 100 pM): 47 ± 11 mmHg
- Final LVEDP ([1]; 100 pM): 47 ± 10 mmHg
- Final LVESP ([1]; 100 pM): 94 ± 14 mmHg
- Final dP/dtmax ([1]; 100 pM): 1021 ± 246 mmHg/s
- Final dP/dtmin ([1]; 100 pM): −688 ± 142 mmHg/s
- Infarct Size ([1]; 100 pM): 18 ± 1%
- Initial Coronary Flow ([1]; 100 pM): 18 ± 2 mL/min
- Initial Heart Rate ([1]; 100 pM): 285 ± 6 BPM
- Initial LVDP ([1]; 100 pM): 89 ± 3 mmHg
- Initial LVEDP ([1]; 100 pM): 10 ± 0.4 mmHg
- Initial LVESP ([1]; 100 pM): 100 ± 3 mmHg
- Initial dP/dtmax ([1]; 100 pM): 2457 ± 37 mmHg/s
- Initial dP/dtmin ([1]; 100 pM): −1726 ± 49 mmHg/s
- Final Coronary Flow ([1]; 1 nM): 10 ± 1 mL/min
- Final Heart Rate ([1]; 1 nM): 266 ± 6 BPM
- Final LVDP ([1]; 1 nM): 49 ± 8 mmHg
- Final LVEDP ([1]; 1 nM): 52 ± 9 mmHg
- Final LVESP ([1]; 1 nM): 101 ± 9 mmHg
- Final dP/dtmax ([1]; 1 nM): 1147 ± 156 mmHg/s
- Final dP/dtmin ([1]; 1 nM): −733 ± 68 mmHg/s
- Infarct Size ([1]; 1 nM): 10 ± 2 %
- Initial Coronary Flow ([1]; 1 nM): 18 ± 1 mL/min
- Initial Heart Rate ([1]; 1 nM): 293 ± 13 BPM
- Initial LVDP ([1]; 1 nM): 91 ± 4 mmHg
- Initial LVEDP ([1]; 1 nM): 10 ± 1 mmHg
- Initial LVESP ([1]; 1 nM): 101 ± 5 mmHg
- Initial dP/dtmax ([1]; 1 nM): 2440 ± 72 mmHg/s
- Initial dP/dtmin ([1]; 1 nM): −1674 ± 106 mmHg/s
- Final Coronary Flow ([1]; 30 nM): 9 ± 1 mL/min
- Final Heart Rate ([1]; 30 nM): 261 ± 11 BPM
- Final LVDP ([1]; 30 nM): 48 ± 10 mmHg
- Final LVEDP ([1]; 30 nM): 50 ± 15 mmHg
- Final LVESP ([1]; 30 nM): 108 ± 3 mmHg
- Final dP/dtmax ([1]; 30 nM): 1059 ± 336 mmHg/s
- Final dP/dtmin ([1]; 30 nM): −733 ± 99 mmHg/s
- Infarct Size ([1]; 30 nM): 14 ± 2%
- Initial Coronary Flow ([1]; 30 nM): 16 ± 1 mL/min
- Initial Heart Rate ([1]; 30 nM): 271 ± 7 BPM
- Initial LVDP ([1]; 30 nM): 88 ± 2 mmHg
- Initial LVEDP ([1]; 30 nM): 11 ± 1 mmHg
- Initial LVESP ([1]; 30 nM): 99 ± 2 mmHg
- Initial dP/dtmax ([1]; 30 nM): 2344 ± 22 mmHg/s
- Initial dP/dtmin ([1]; 30 nM): −1588 ± 18 mmHg/s
- restoration of post-reperfused cardiac function compared to control I/R hearts ([1]; 100 nM given at the beginning of reperfusion for 5 minutes, 25 to 50 min): significantly restored post-reperfused cardiac function
- Final Coronary Flow ([1]; 100 nM): 11 ± 2 mL/min
- Final Heart Rate ([1]; 100 nM): 254 ± 12 BPM
- Final LVDP ([1]; 100 nM): 66 ± 6 mmHg
- Final LVEDP ([1]; 100 nM): 48 ± 13 mmHg
- Final LVESP ([1]; 100 nM): 114 ± 11 mmHg
- Final dP/dtmin ([1]; 100 nM): −981 ± 135 mmHg/s
- Infarct Size ([1]; 100 nM): 8 ± 2 %
- Initial Coronary Flow ([1]; 100 nM): 20 ± 2 mL/min
- Initial Heart Rate ([1]; 100 nM): 301 ± 10 BPM
- Initial LVDP ([1]; 100 nM): 89 ± 4 mmHg
- Initial LVEDP ([1]; 100 nM): 9 ± 1 mmHg
- Initial LVESP ([1]; 100 nM): 98 ± 3 mmHg
- Initial dP/dtmax ([1]; 100 nM): 2528 ± 133 mmHg/s
- Initial dP/dtmin ([1]; 100 nM): −1807 ± 125 mmHg/s
- Final Coronary Flow ([1]; 1 μM): 10 ± 3 mL/min
- Final Heart Rate ([1]; 1 μM): 296 ± 86 BPM
- Final LVDP ([1]; 1 μM): 40 ± 15 mmHg
- Final LVEDP ([1]; 1 μM): 60 ± 12 mmHg
- Final LVESP ([1]; 1 μM): 101 ± 6 mmHg
- Final dP/dtmax ([1]; 1 μM): 794 ± 220 mmHg/s
- Final dP/dtmin ([1]; 1 μM): −616 ± 122 mmHg/s
- Infarct Size ([1]; 1 μM): 5 ± 2 %
- Initial Coronary Flow ([1]; 1 μM): 21 ± 1 mL/min
- Initial Heart Rate ([1]; 1 μM): 274 ± 15 BPM
- Initial LVDP ([1]; 1 μM): 94 ± 5 mmHg
- Initial LVEDP ([1]; 1 μM): 10 ± 2 mmHg
- Initial LVESP ([1]; 1 μM): 104 ± 6 mmHg
- Initial dP/dtmax ([1]; 1 μM): 2493 ± 128 mmHg/s
- Initial dP/dtmin ([1]; 1 μM): −1786 ± 97 mmHg/s
- cardio depressive effect on post-reperfused cardiac function compared to all other groups ([1]; 10 μM): most cardio depressive effect
- reduction of infarct size compared to control I/R hearts ([1]; 10 μM): reduced infarct size
- stunning concentration relative to the concentration needed to produce a 50% reduction in infarct size ([1]; 10 μM): 10,000 times
- stunning of the heart during reperfusion ([1]; 10 μM): caused stunning
- effect on reducing infarct size ([1]; 10 μM and 1 μM): most robust effect on reducing infarct size
- Final Coronary Flow ([1]; 10 μM): 0 mL/min
- Final Heart Rate ([1]; 10 μM): 811 ± 79 BPM
- Final LVDP ([1]; 10 μM): 1 ± 0.2 mmHg
- Final LVEDP ([1]; 10 μM): 68 ± 17 mmHg
- Final LVESP ([1]; 10 μM): 69 ± 17 mmHg
- Final dP/dtmax ([1]; 10 μM): 54 ± 14 mmHg/s
- Final dP/dtmin ([1]; 10 μM): −56 ± 14 mmHg/s
- Infarct Size ([1]; 10 μM): 5 ± 2 %
- Initial Coronary Flow ([1]; 10 μM): 18 ± 2 mL/min
- Initial Heart Rate ([1]; 10 μM): 285 ± 24 BPM
- Initial LVDP ([1]; 10 μM): 92 ± 3 mmHg
- Initial LVEDP ([1]; 10 μM): 8 ± 2 mmHg
- Initial LVESP ([1]; 10 μM): 101 ± 4 mmHg
- Initial dP/dtmax ([1]; 10 μM): 2540 ± 158 mmHg/s
- Initial dP/dtmin ([1]; 10 μM): −1772 ± 141 mmHg/s
- minimum effective concentration, tissue-salvaging effects (infarct size) ([1]; ex vivo rat I/R hearts): 1 nM
- decrease in minimum effective concentration (increase in potency to reduce infarct size) as compared to Myr+PKCε− ([1]; infarct size, FIG. 3): 10,000 ×
- solubility [2]: ≤ 100 mM

Structure (SMILES): CCCCCCCCCCCCCC(=O)N[C@@H](CCC(=O)O)C(=O)N[C@@H](C)C(=O)N[C@H](C(=O)N[C@@H](CO)C(=O)N[C@@H](CC(C)C)C(=O)N[C@@H](CCCCN)C(=O)N1CCC[C@H]1C(=O)N[C@H](C(=O)O)[C@@H](C)O)C(C)C [Myr + PKCε-, Myr-EAVSLKPT] (Myristoyl-EAVSLKPT-OH; C-terminus assumed)
- concentration for similar restoration of post-reperfused cardiac function relative to Myr+TAT+PKCε− [1]: 100 ×
- reduction of infarct size compared to control I/R hearts ([1]; 10 μM): did not reduce infarct size
- restoration of post-reperfused cardiac function ([1]; 10 μM): ineffective
- Final Coronary Flow ([1]; 10 μM): 10 ± 1 mL/min
- Final Heart Rate ([1]; 10 μM): 233 ± 10 BPM
- Final LVDP ([1]; 10 μM): 46 ± 8 mmHg
- Final LVEDP ([1]; 10 μM): 58 ± 3 mmHg
- Final LVESP ([1]; 10 μM): 104 ± 6 mmHg
- Final dP/dtmax ([1]; 10 μM): 723 ± 84 mmHg/s
- Final dP/dtmin ([1]; 10 μM): −694 ± 167 mmHg/s
- Infarct Size ([1]; 10 μM): 15 ± 4%
- Initial Coronary Flow ([1]; 10 μM): 17 ± 2 mL/min
- Initial Heart Rate ([1]; 10 μM): 258 ± 8 BPM
- Initial LVDP ([1]; 10 μM): 90 ± 5 mmHg
- Initial LVEDP ([1]; 10 μM): 6 ± 1 mmHg
- Initial LVESP ([1]; 10 μM): 95 ± 5 mmHg
- Initial dP/dtmax ([1]; 10 μM): 2294 ± 108 mmHg/s
- Initial dP/dtmin ([1]; 10 μM): −1548 ± 92 mmHg/s
- solubility [2]: ≤ 10 mM
